Reference: patent US11629135B2 (JUBILANT PRODEL LLC, priority 2017, dated 2023)

Experiments:
Type in all cases: in vitro ADME
[1] = Metabolic stability in liver microsomes (mouse); settings: mice liver microsomes 0.5 mg/mL, compound 1 μM, NADPH, up to 30 min
Method: (§1) Metabolic Stability in Liver Microsomes
(§2) Procedure: Potassium phosphate buffer (66.7 mM, pH 7.4) containing mouse or rat or dog or monkey or human liver microsomes (0.5 mg/mL) was pre-incubated separately with compound (1 μM) and positive control (verapamil, 1 μM) in a 37° C. water bath for 5 min. The reactions were initiated by adding 20 μL of 10 mM NADPH. Reactions without NADPH (0 and 30 min) were also incubated to rule out non-NADPH metabolism or chemical instability in the incubation buffer. All reactions were terminated using 200 μL of ice-cold acetonitrile containing internal standard at 0, 5, 15 and 30 min. The vials were centrifuged at 3000 rpm for 15 min. The reaction mixtures (obtained from the above studies) were extracted, processed and analyzed by LC-MS [Shimadzu SIL LC series (Kyoto, Japan) was coupled to an API-4000 Mass Spectrometer (MDS Sciex, Toronto, Canada)] to monitor the disappearance of compound.

[2] = Metabolic stability in liver microsomes (rat); settings: rat liver microsomes 0.5 mg/mL, compound 1 μM, NADPH, up to 30 min
Method: as §1, §2

[3] = tested on: Caco-2 human intestinal epithelial cells; assay: Caco-2 permeability; settings: 5 μM, bi-directional, 60 min
Method: Procedure: Caco-2 human intestinal epithelial cells were plated in 24-Transwell® dual chamber plates (Millipore, Billerica, Mass., USA) (cell density of 80,000 cells/cm^2 on day-1). The permeability studies were conducted with the monolayers cultured for 21 to 22 days in culture. The integrity of each Caco-2 cell monolayer was certified by trans epithelial electrical resistance (TEER) test (pre-experiment) and by determining the permeability of reference compound i.e., Lucifer yellow. Caco-2 cell monolayers with TEER values greater than 500 Ωcm^2 were considered for experimentation. Digoxin (5 μM) was used as a positive control for P-gp substrate. The concentrations of compound used in the assay was 5 μM. HBSS Buffer was used as the medium for the transport assay and the final concentration of DMSO in spiking solution was 0.05%. The bi-directional permeability study was initiated by adding an appropriate volume of HBSS buffer containing compound to respective apical and basolateral chambers (n=3). An aliquot of sample (100 μL) was taken from both chambers at 0 and 60 min of the incubation period and to this equal volume of acetonitrile was added, mixed gently and centrifuged at 4000 rpm for 10 min. An aliquot of 100 μL was subsequently transferred to the auto-sampler and 10 μL was injected for analysis on LC-MS/MS.

With `COc1nc(OCc2cccc(-c3ccccc3)c2C)nc(OC)c1CN1CCCC[C@H]1C(=O)O` [Compound 45, (S)-1-((4,6-dimethoxy-2-((2-methyl-[1,1′-biphenyl]-3-yl)methoxy)pyrimidin-5-yl)methyl)piperidine-2-carboxylic acid] the “Metabolic stability in liver microsomes” value [1] was > 80%, the “Metabolic stability in liver microsomes” value [2] was > 80% and the Caco-2 efflux [3] was “high efflux”. For the same compound, the Caco-2 permeability [3] was “medium permeable”.
